# Assay results from article PMC12042115 (mLife, 2025).
# Where two headings read alike, the source gives them in different places.
# Test system: wild‐type BCG cells
# Type: cell-based, M. bovis BCG
# Settings: for Mean Ratio: GDI5755_2d vs DMSO_2d; for Mean Ratio / Mean Ratio (GDI5755_2d vs DMSO_2d): up-regulated; for Mean_Ratio (GDI5755_3d vs DMSO_3d): down-regulated, 3 d; for Mean Ratio (GDI5755_2d vs DMSO_2d): 2d
smiles,measurement,setting,value
O=C(Oc1ccc(Cl)cc1)c1ccc(N2CCOCC2)c([N+](=O)[O-])c1 [GDI‐5755],Mean Ratio,protein A1KKK9 Transcriptional regulator MraZ,1.25
same,Mean_Ratio (GDI5755_3d vs DMSO_3d),"protein A1KKR8, BCG_2242 (Rv2225), 3-methyl-2-oxobutanoate hydroxymethyltransferase",0.748
same,Mean_Ratio (GDI5755_3d vs DMSO_3d),"protein A1KLF3, BCG_2477c (Rv2457c), ATP-dependent Clp protease ATP-binding subunit ClpX",0.743
same,Mean_Ratio (GDI5755_3d vs DMSO_3d),"protein A1KLT2, BCG_2607c (Rv2584c), Adenine phosphoribosyltransferase",0.7
same,Mean_Ratio (GDI5755_3d vs DMSO_3d),"protein A1KMA6, BCG_2781c (Rv2764c), Thymidylate synthase",0.7
same,Mean Ratio (GDI5755_2d vs DMSO_2d),protein A1KNI8 UPF0182 protein BCG_3215c,1.34
same,Mean Ratio,protein A1KNQ0 Adenosylhomocysteinase,1.26
same,Mean_Ratio (GDI5755_3d vs DMSO_3d),"protein A1KQ47, BCG_3775c (Rv3715c), Recombination protein RecR",0.7
same,Mean Ratio (GDI5755_2d vs DMSO_2d),protein BCG_0095 A1KEN2 UPF0182 protein,1.41
same,Mean Ratio (GDI5755_2d vs DMSO_2d),protein BCG_0108c A0A0H3M9Q4 Probable oxidoreductase,1.77
same,Mean Ratio (GDI5755_2d vs DMSO_2d),protein BCG_0130 A0A0H3M0N8 Possible oxidoreductase,1.72
same,Mean Ratio (GDI5755_2d vs DMSO_2d),protein BCG_0132 A0A0H3M2I5 Possible fatty-acid-CoA ligase fadD10,1.49
same,Mean Ratio (GDI5755_2d vs DMSO_2d),protein BCG_0178 A0A0H3M7D0 DNA glycosylase,1.58
same,Mean Ratio (GDI5755_2d vs DMSO_2d),protein BCG_0181 A1KEW5 Putative S-adenosyl-L-methionine-dependent methyltransferase,2.17
same,Mean Ratio (GDI5755_2d vs DMSO_2d),protein BCG_0182 A1KEW6 Putative S-adenosyl-L-methionine-dependent methyltransferase,2.71
same,Mean Ratio (GDI5755_2d vs DMSO_2d),protein BCG_0228 A0A0H3MA02 Probable conserved integral membrane protein,1.46
same,Mean Ratio (GDI5755_2d vs DMSO_2d),"protein BCG_0248 A1KF31 Phosphoenolpyruvate carboxykinase [GTP],pckG",1.87
same,Mean Ratio (GDI5755_2d vs DMSO_2d),protein BCG_0282c A0A0H3M7K8 Probable acyl-CoA dehydrogenase fadE5,1.45
same,Mean Ratio (GDI5755_2d vs DMSO_2d),"protein BCG_0289c A0A0H3MA45 HSP20 family protein/ Heat stress induced ribosome-binding protein A,acr2",3.46
same,Mean Ratio (GDI5755_2d vs DMSO_2d),protein BCG_0353 A0A0H3M1Y1 Transmembrane protein,1.84
same,Mean Ratio (GDI5755_2d vs DMSO_2d),protein BCG_0380 A0A0H3MAC3 Isoniazid inductible gene protein iniB,1.73
same,Mean Ratio (GDI5755_2d vs DMSO_2d),protein BCG_0389 A1KFH2 Chaperone protein DnaK,1.52
same,Mean Ratio (GDI5755_2d vs DMSO_2d),protein BCG_0390 A1KFH3 Protein GrpE,1.53
same,Mean Ratio (GDI5755_2d vs DMSO_2d),protein BCG_0391 A0A0H3M380 Chaperone protein DnaJ,1.51
same,Mean Ratio (GDI5755_2d vs DMSO_2d),protein BCG_0422c A0A0H3M7W9 Chaperone protein ClpB,1.56
same,Mean Ratio (GDI5755_2d vs DMSO_2d),protein BCG_0465c A0A0H3M812 Possible transmembrane protein,1.45
same,Mean Ratio (GDI5755_2d vs DMSO_2d),protein BCG_0490c A0A0H3M1K6 Probable conserved membrane protein mmpS4,1.45
same,Mean Ratio (GDI5755_2d vs DMSO_2d),protein BCG_0494c A0A0H3M296 DUF5078 domain-containing protein,1.52
same,Mean Ratio (GDI5755_2d vs DMSO_2d),protein BCG_0507 A0A0H3M3L9 isocitrate lyase,1.56
same,Mean Ratio (GDI5755_2d vs DMSO_2d),protein BCG_0517 A0A0H3M881 Possible conserved transmembrane protein,1.43
same,Mean Ratio (GDI5755_2d vs DMSO_2d),protein BCG_0565 A0A0H3M3T9 Probable gaba permease gabP (4-amino butyrate transport carrier),1.46
same,Mean Ratio (GDI5755_2d vs DMSO_2d),"protein BCG_0578c A0A0H3M3U8 1,4-dihydroxy-2-naphthoate octaprenyltransferase",1.66
same,Mean Ratio (GDI5755_2d vs DMSO_2d),protein BCG_0605c A1KG37 2-heptyl-1-hydroxyquinolin-4(1H)-one methyltransferase,2.76
same,Mean Ratio (GDI5755_2d vs DMSO_2d),protein BCG_0614 A0A0H3M8E5 DUF1918 domain-containing protein,1.43
same,Mean Ratio (GDI5755_2d vs DMSO_2d),protein BCG_0623c A0A0H3M1W6 PE-PGRS family protein,1.87
same,Mean Ratio (GDI5755_2d vs DMSO_2d),protein BCG_0725c A0A0H3MAX0 Probable conserved transmembrane transport protein mmpL5,1.69
same,Mean Ratio (GDI5755_2d vs DMSO_2d),protein BCG_0727 A0A0H3M257 Transcriptional regulator,1.43
same,Mean Ratio (GDI5755_2d vs DMSO_2d),protein BCG_0761 A0A0H3M268 Possible arylsulfatase atsA,1.61
same,Mean Ratio (GDI5755_2d vs DMSO_2d),protein BCG_0776c A1KGK7 Putative S-adenosyl-L-methionine-dependent methyltransferase BCG_0776c,1.55
same,Mean Ratio (GDI5755_2d vs DMSO_2d),protein BCG_0835 A0A0H3M322 Deacetylase,1.55
same,Mean Ratio (GDI5755_2d vs DMSO_2d),protein BCG_0883 A1KGW3 Putative S-adenosyl-L-methionine-dependent methyltransferase BCG_0883,1.87
same,Mean Ratio (GDI5755_2d vs DMSO_2d),protein BCG_0969 A0A0H3M4Q4 Possible glycine betaine transport integral membrane protein betP,1.64
same,Mean Ratio (GDI5755_2d vs DMSO_2d),protein BCG_1053 A0A0H3M3P8 Uncharacterized protein,1.56
same,Mean Ratio (GDI5755_2d vs DMSO_2d),protein BCG_1115 A0A0H3M9F1 Uncharacterized protein,1.90
same,Mean Ratio (GDI5755_2d vs DMSO_2d),protein BCG_1130 A0A0H3M9G5 Probable conserved transmembrane protein,1.64
same,Mean Ratio (GDI5755_2d vs DMSO_2d),protein BCG_1191 A0A0H3M5B0 2-methylcitrate dehydratase,1.57
same,Mean Ratio (GDI5755_2d vs DMSO_2d),protein BCG_1249 A0A0H3M3D0 L-glutamate gamma-semialdehyde dehydrogenase,1.49
same,Mean Ratio (GDI5755_2d vs DMSO_2d),protein BCG_1281 A0A0H3M3F3 Alternative RNA polymerase sigma factor sigE,1.41
same,Mean Ratio (GDI5755_2d vs DMSO_2d),protein BCG_1309c A0A0H3M3H0 Possible membrane protein,1.44
same,Mean Ratio (GDI5755_2d vs DMSO_2d),protein BCG_1334 A0A0H3M3I9 Lipoprotein lprC,1.55
same,Mean Ratio (GDI5755_2d vs DMSO_2d),protein BCG_1404c A0A0H3M3N1 Conserved membrane protein,1.78
same,Mean Ratio (GDI5755_2d vs DMSO_2d),protein BCG_1574c A0A0H3M689 Probable conserved transmembrane transport protein mmpL12,1.47
same,Mean Ratio (GDI5755_2d vs DMSO_2d),protein BCG_1609 A0A0H3M480 Probable conserved transmembrane transport protein mmpL6,1.85
same,Mean Ratio (GDI5755_2d vs DMSO_2d),protein BCG_1660c A0A0H3M5A2 Probable integral membrane cytochrome D ubiquinol oxidase (Subunit II) cydB,1.42
same,Mean Ratio (GDI5755_2d vs DMSO_2d),protein BCG_1661c A0A0H3M4E4 Probable integral membrane cytochrome D ubiquinol oxidase (Subunit I) cydA,1.57
same,Mean Ratio (GDI5755_2d vs DMSO_2d),protein BCG_1890c A0A0H3MB87 Type II NADH dehydrogenase Ndh/Rv1854c,1.53
same,Mean Ratio (GDI5755_2d vs DMSO_2d),protein BCG_2010c A0A0H3M561 DUF1490 family protein,1.88
same,Mean Ratio (GDI5755_2d vs DMSO_2d),protein BCG_2056c A0A0H3MBM9 Possible conserved transmembrane protein,1.52
same,Mean Ratio (GDI5755_2d vs DMSO_2d),protein BCG_2072c A0A0H3M7M3 Probable transmembrane protein,2.05
same,Mean Ratio (GDI5755_2d vs DMSO_2d),protein BCG_2419c A0A0H3M8K8 Probable conserved lipoprotein lppR,1.48
same,Mean Ratio (GDI5755_2d vs DMSO_2d),protein BCG_2583 A0A0H3M7F6 Probable proline and glycine rich transmembrane protein,1.73
same,Mean Ratio (GDI5755_2d vs DMSO_2d),protein BCG_2657 A0A0H3M963 Archease domain-containing protein,1.52
same,Mean Ratio (GDI5755_2d vs DMSO_2d),protein BCG_2934c A0A0H3M896 Possible D-amino acid aminohydrolase,1.77
same,Mean Ratio (GDI5755_2d vs DMSO_2d),protein BCG_2965 A0A0H3MDP7 Probable transposase for insertion sequence element IS1533,2.65
same,Mean Ratio (GDI5755_2d vs DMSO_2d),protein BCG_3007c A0A0H3M7X4 DNA-binding protein HupB,1.45
same,Mean Ratio (GDI5755_2d vs DMSO_2d),protein BCG_3038 A0A0H3MA42 Probable lipoprotein lpqA,1.97
